Columns and labels:
[1] = molecular target: T1, Solute carrier family 22 member 3 (Homo sapiens, UniProt O75751); assay: TP_TRANSPORTER: inhibition of MPP+ uptake in OCT3-expressing HEK293 cells
T1 sequence (O75751 whole entry): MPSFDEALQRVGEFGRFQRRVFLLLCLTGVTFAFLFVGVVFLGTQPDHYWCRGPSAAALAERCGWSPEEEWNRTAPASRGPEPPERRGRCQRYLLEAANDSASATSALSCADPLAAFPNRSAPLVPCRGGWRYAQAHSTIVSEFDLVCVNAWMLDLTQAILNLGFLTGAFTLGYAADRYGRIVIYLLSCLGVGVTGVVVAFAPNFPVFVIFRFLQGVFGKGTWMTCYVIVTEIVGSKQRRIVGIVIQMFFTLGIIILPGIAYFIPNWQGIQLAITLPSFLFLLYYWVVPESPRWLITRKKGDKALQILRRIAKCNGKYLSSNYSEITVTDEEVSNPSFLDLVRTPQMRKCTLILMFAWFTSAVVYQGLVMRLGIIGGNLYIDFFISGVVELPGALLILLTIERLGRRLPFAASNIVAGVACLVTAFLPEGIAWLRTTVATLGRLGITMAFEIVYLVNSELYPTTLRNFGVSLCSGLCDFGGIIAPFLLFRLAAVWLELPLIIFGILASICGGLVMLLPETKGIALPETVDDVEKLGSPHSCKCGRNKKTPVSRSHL

[2] = molecular target: T2, Solute carrier family 22 member 1 (Rattus norvegicus, UniProt Q63089); assay: TP_TRANSPORTER: inhibition of MPP+ uptake in OCT1-expressing HEK293 cells
T2 sequence (Q63089 whole entry): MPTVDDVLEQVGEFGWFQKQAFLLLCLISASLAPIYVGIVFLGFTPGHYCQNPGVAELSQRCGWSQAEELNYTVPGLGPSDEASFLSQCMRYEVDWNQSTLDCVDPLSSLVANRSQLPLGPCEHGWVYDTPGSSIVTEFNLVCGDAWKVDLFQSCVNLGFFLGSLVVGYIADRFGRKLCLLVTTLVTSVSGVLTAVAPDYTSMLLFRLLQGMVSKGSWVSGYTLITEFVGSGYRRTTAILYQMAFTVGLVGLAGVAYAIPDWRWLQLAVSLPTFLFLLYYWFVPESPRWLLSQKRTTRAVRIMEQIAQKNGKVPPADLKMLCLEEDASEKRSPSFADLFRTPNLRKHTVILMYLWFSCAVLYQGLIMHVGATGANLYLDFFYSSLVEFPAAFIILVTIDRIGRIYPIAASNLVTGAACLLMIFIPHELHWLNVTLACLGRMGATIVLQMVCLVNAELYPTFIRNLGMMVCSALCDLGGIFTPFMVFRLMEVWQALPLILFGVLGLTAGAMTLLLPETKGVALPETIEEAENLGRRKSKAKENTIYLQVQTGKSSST

[3] = molecular target: T3, Solute carrier family 22 member 2 (Rattus norvegicus, UniProt Q9R0W2); assay: TP_TRANSPORTER: inhibition of MPP+ uptake in OCT2-expressing HEK293 cells; type: functional, cell-based
T3 sequence (Q9R0W2 whole entry): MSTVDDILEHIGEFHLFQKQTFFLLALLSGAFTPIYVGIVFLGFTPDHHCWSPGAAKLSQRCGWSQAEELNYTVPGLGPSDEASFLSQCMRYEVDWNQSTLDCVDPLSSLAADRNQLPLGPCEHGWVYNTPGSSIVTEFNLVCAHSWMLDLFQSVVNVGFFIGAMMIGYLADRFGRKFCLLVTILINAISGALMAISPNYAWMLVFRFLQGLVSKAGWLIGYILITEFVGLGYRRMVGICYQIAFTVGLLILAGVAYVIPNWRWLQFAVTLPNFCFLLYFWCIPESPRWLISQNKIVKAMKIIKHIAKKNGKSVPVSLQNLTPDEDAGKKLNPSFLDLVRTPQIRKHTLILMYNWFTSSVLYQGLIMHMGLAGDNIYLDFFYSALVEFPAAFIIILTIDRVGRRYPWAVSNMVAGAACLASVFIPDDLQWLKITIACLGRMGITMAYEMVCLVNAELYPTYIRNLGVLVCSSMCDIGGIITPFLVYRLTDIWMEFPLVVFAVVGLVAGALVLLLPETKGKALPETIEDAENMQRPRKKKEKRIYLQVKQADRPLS

[4] = molecular target: T3, Solute carrier family 22 member 2; assay: (§1) TP_TRANSPORTER: uptake in OCT2-expressing HEK293 cells; type: functional, cell-based; conditions: human
[5] = substrate: N=C(N)N; assay: as §1; type: functional, cell-based
[6] = substrate: C[n+]1ccc(-c2ccccc2)cc1; assay: as §1; type: functional, cell-based

| Molecule | Ki [3] | Activity [4] | other results |
| --- | --- | --- | --- |
| NCCc1c[nH]cn1 [HISTAMINE] | 390 µM |  | Ki [1]: 140 µM; Ki [2]: 1400 µM |
| N=C(N)N [GUANIDINE] | 280 µM |  |  |
| CC[N+](CC)(CC)CC [TETRYLAMMONIUM] |  | substrate [+] |  |
| CN1CC(=O)NC1=N [CREATININE] |  | substrate [+] |  |
| Solute carrier family 22 member 2 (Rattus norvegicus) (protein) MSTVDDILEHIGEFHLFQKQTFFLLALLSGAFTPIYVGIVFLGFTPDHHCWSPGAAKLSQRCGWSQAEELNYTVPGLGPSDEASFLSQCMRYEVDWNQSTLDCVDPLSSLAADRNQLPLGPCEHGWVYNTPGSSIVTEFNLVCAHSWMLDLFQSVVNVGFFIGAMMIGYLADRFGRKFCLLVTILINAISGALMAISPNYAWMLVFRFLQGLVSKAGWLIGYILITEFVGLGYRRMVGICYQIAFTVGLLILAGVAYVIPNWRWLQFAVTLPNFCFLLYFWCIPESPRWLISQNKIVKAMKIIKHIAKKNGKSVPVSLQNLTPDEDAGKKLNPSFLDLVRTPQIRKHTLILMYNWFTSSVLYQGLIMHMGLAGDNIYLDFFYSALVEFPAAFIIILTIDRVGRRYPWAVSNMVAGAACLASVFIPDDLQWLKITIACLGRMGITMAYEMVCLVNAELYPTYIRNLGVLVCSSMCDIGGIITPFLVYRLTDIWMEFPLVVFAVVGLVAGALVLLLPETKGKALPETIEDAENMQRPRKKKEKRIYLQVKQADRPLS |  |  | Km [5]: 730 µM; Km [6]: 9.4 µM |

Source: ChEMBL document CHEMBL2074492, “Selective substrates for non-neuronal monoamine transporters” (Mol Pharmacol, 1999)
